Data published in ChEMBL document CHEMBL1201862, “PubChem BioAssay data set” (2004).
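Dose response: 5 concentrations. Exposure: 48 h. Format: 96-well plates. Endpoint: linear interpolation; highest concentration if not reached. Abbreviation: GI50, concentration required for 50% inhibition of growth.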 Active and inactive are the calls of the source. No stated cut-off is given here; in the data, active = GI50 up to about 1.1 µM and inactive = higher.

Experiments:
Assay in all cases: NCI-60 cell line screen, 48 h
[1] = system: A549
[2] = system: CCRF-CEM
[3] = system: HCC 2998
[4] = system: HT-29
[5] = system: IGROV-1
[6] = system: NCI-H226
[7] = system: OVCAR-3
[8] = system: SK-MEL-5
[9] = system: SK-OV-3
[10] = system: SN12C
[11] = system: SW-620
[12] = system: TK-10
[13] = system: UACC-257
[14] = system: EKVX
[15] = system: MOLT-4
[16] = system: RPMI-8226
[17] = system: UO-31

Row | Structure (SMILES) | GI50 [1] | GI50 [2] | GI50 [3] | GI50 [4] | GI50 [5] | GI50 [6] | GI50 [7] | GI50 [8] | GI50 [9] | GI50 [10] | GI50 [11] | GI50 [12] | GI50 [13] | GI50 [14] | GI50 [15] | GI50 [16] | GI50 [17]
1 | Clc1ccc(C[P+](c2ccccc2)(c2ccccc2)c2ccccc2)cc1Cl | 4.49 µM (inactive) | 3.07 µM (inactive) | 2.46 µM (inactive) | 1.91 µM (inactive) | 2.51 µM (inactive) | 2.8 µM (inactive) | 2.06 µM (inactive) | 1.42 µM (inactive) | 7.35 µM (inactive) | 4.04 µM (inactive) | 2.93 µM (inactive) | 5.05 µM (inactive) | 2.14 µM (inactive) | – | – | – | –
2 | CCCCCCCCCCNC(=S)OC | 34.3 µM (inactive) | 24.3 µM (inactive) | 43.6 µM (inactive) | 34.3 µM (inactive) | 25.7 µM (inactive) | – | – | 23 µM (inactive) | > 100 µM (inactive) | 26.7 µM (inactive) | 42.8 µM (inactive) | 98.2 µM (inactive) | 23.8 µM (inactive) | 80 µM (inactive) | 5.83 µM (inactive) | 13.2 µM (inactive) | 15.8 µM (inactive)
3 | Cc1cc(N(CCC#N)CCC#N)ccc1/C=C1/N=C(c2ccccc2)N(N)C1=O | 84.1 µM (inactive) | 61.7 µM (inactive) | > 100 µM (inactive) | > 100 µM (inactive) | 79.8 µM (inactive) | > 100 µM (inactive) | > 100 µM (inactive) | > 100 µM (inactive) | > 100 µM (inactive) | > 100 µM (inactive) | 85.5 µM (inactive) | 74.1 µM (inactive) | > 100 µM (inactive) | > 100 µM (inactive) | > 100 µM (inactive) | > 100 µM (inactive) | > 100 µM (inactive)
4 | CCCCc1c2c(nc3c1CCCC3=O)C(=O)CCC2 | > 100 µM (inactive) | > 100 µM (inactive) | > 100 µM (inactive) | > 100 µM (inactive) | > 100 µM (inactive) | > 100 µM (inactive) | > 100 µM (inactive) | > 100 µM (inactive) | > 100 µM (inactive) | > 100 µM (inactive) | > 100 µM (inactive) | > 100 µM (inactive) | > 100 µM (inactive) | > 100 µM (inactive) | > 100 µM (inactive) | > 100 µM (inactive) | > 100 µM (inactive)
5 | NCCCNCCSP(=O)(O)O [AMIFOSTINE] | > 519 µM (inactive) | 512 µM (inactive) | > 733 µM (inactive) | > 750 µM (inactive) | > 750 µM (inactive) | > 703 µM (inactive) | > 750 µM (inactive) | > 750 µM (inactive) | > 750 µM (inactive) | > 750 µM (inactive) | > 750 µM (inactive) | – | > 750 µM (inactive) | > 750 µM (inactive) | 685 µM (inactive) | > 452 µM (inactive) | 535 µM (inactive)
6 | CC(=O)c1cc([N+](=O)[O-])ccc1OCC(=O)O | > 100 µM (inactive) | > 100 µM (inactive) | > 100 µM (inactive) | > 100 µM (inactive) | > 100 µM (inactive) | > 100 µM (inactive) | > 100 µM (inactive) | > 100 µM (inactive) | > 100 µM (inactive) | > 100 µM (inactive) | > 100 µM (inactive) | > 100 µM (inactive) | > 100 µM (inactive) | > 100 µM (inactive) | > 100 µM (inactive) | > 100 µM (inactive) | > 100 µM (inactive)
7 | CN(O)C(=O)c1ccccc1 | > 100 µM (inactive) | > 100 µM (inactive) | > 100 µM (inactive) | > 100 µM (inactive) | > 100 µM (inactive) | > 100 µM (inactive) | > 100 µM (inactive) | > 100 µM (inactive) | > 100 µM (inactive) | > 100 µM (inactive) | > 100 µM (inactive) | > 100 µM (inactive) | > 100 µM (inactive) | – | > 100 µM (inactive) | > 100 µM (inactive) | > 100 µM (inactive)
8 | OCCN1CCN(CC/C=C2/c3ccccc3Sc3ccc(Cl)cc32)CC1 | 15.6 µM (inactive) | 8.41 µM (inactive) | 11.3 µM (inactive) | 2.57 µM (inactive) | 15.2 µM (inactive) | 14.6 µM (inactive) | 14.7 µM (inactive) | 5.89 µM (inactive) | 15.8 µM (inactive) | 13.2 µM (inactive) | 12 µM (inactive) | 15.2 µM (inactive) | 2.52 µM (inactive) | 16.8 µM (inactive) | 11.4 µM (inactive) | 9.82 µM (inactive) | 13.3 µM (inactive)
9 | CCCCC1(C2c3ccccc3Oc3ccccc32)C(=O)N(c2ccccc2)N(c2ccccc2)C1=O | 39.1 µM (inactive) | 22.5 µM (inactive) | > 41.1 µM (inactive) | 77.1 µM (inactive) | > 72.3 µM (inactive) | > 80.9 µM (inactive) | 42.3 µM (inactive) | 34.3 µM (inactive) | > 100 µM (inactive) | > 61.9 µM (inactive) | 56.6 µM (inactive) | – | 29.4 µM (inactive) | > 100 µM (inactive) | > 10 µM (inactive) | 27.7 µM (inactive) | > 83.2 µM (inactive)
10 | CC1=C(C(=O)NCc2ccccc2)C(c2ccc(C3C(C(=O)NCc4ccccc4)=C(C)NC(C)=C3C(=O)NCc3ccccc3)cc2)C(C(=O)NCc2ccccc2)=C(C)N1 | 24.3 µM (inactive) | 3.39 µM (inactive) | 17.1 µM (inactive) | 5.61 µM (inactive) | 18 µM (inactive) | 17.5 µM (inactive) | 10.4 µM (inactive) | 16.1 µM (inactive) | – | 6.5 µM (inactive) | 10.2 µM (inactive) | 20.7 µM (inactive) | 15 µM (inactive) | 14.9 µM (inactive) | 5.75 µM (inactive) | 6.65 µM (inactive) | 21.2 µM (inactive)
11 | COc1ccc(-c2onc(-c3ccc([N+](=O)[O-])cc3)c2C2=NCCCN2)cc1 | > 100 µM (inactive) | > 100 µM (inactive) | > 100 µM (inactive) | 40.3 µM (inactive) | > 100 µM (inactive) | 38.8 µM (inactive) | 26.5 µM (inactive) | 30.2 µM (inactive) | – | > 100 µM (inactive) | > 100 µM (inactive) | – | 87.7 µM (inactive) | > 100 µM (inactive) | 76.2 µM (inactive) | > 100 µM (inactive) | 18.4 µM (inactive)
12 | C=C1C2Oc3ccccc3C1N(c1ccccc1)O2 (stereo unspecified) | 30.4 µM (inactive) | 21.3 µM (inactive) | 31 µM (inactive) | 23 µM (inactive) | 34.4 µM (inactive) | 37.9 µM (inactive) | 32.3 µM (inactive) | – | 64.3 µM (inactive) | 23.7 µM (inactive) | 34.8 µM (inactive) | 84.9 µM (inactive) | 40.6 µM (inactive) | 42.9 µM (inactive) | 20 µM (inactive) | 23.7 µM (inactive) | 47.9 µM (inactive)
13 | Cn1c(/C=C/CO)c(CO)c2c1C(=O)C=C(N1CC1)C2=O [APAZIQUONE] | < 0.01 µM (active) | 0.184 µM (active) | < 0.01 µM (active) | < 0.01 µM (active) | 0.0244 µM (active) | 0.0185 µM (active) | 0.0206 µM (active) | < 0.01 µM (active) | < 0.0134 µM (active) | < 0.01 µM (active) | < 0.01 µM (active) | – | < 0.01 µM (active) | 0.0463 µM (active) | 0.299 µM (active) | 0.0172 µM (active) | 0.0142 µM (active)
14 | CC(=O)OCc1cc(=O)n(C)c2c3c4c(cc12)c(C)cc(=O)n4CO3 | 1.69 µM (inactive) | 0.853 µM (active) | 1.52 µM (inactive) | 1.49 µM (inactive) | 1.21 µM (inactive) | 1.58 µM (inactive) | 1.45 µM (inactive) | 1.66 µM (inactive) | 3.56 µM (inactive) | 1.66 µM (inactive) | 0.489 µM (active) | – | 2.05 µM (inactive) | 2.44 µM (inactive) | 0.478 µM (active) | 1.51 µM (inactive) | 1.64 µM (inactive)
15 | CCOC(=O)c1sc(Nc2cc(Cl)ccc2Cl)nc1C | 72.3 µM (inactive) | – | > 100 µM (inactive) | 50.2 µM (inactive) | 73.1 µM (inactive) | 83.2 µM (inactive) | 84.1 µM (inactive) | – | – | 61.9 µM (inactive) | > 100 µM (inactive) | > 100 µM (inactive) | 81.8 µM (inactive) | > 100 µM (inactive) | 29.6 µM (inactive) | 53.2 µM (inactive) | > 100 µM (inactive)
16 | CC(C)c1cccc2sc(NC(=O)C(=O)CC(=O)c3ccc(F)cc3)nc12 | > 100 µM (inactive) | > 100 µM (inactive) | – | > 100 µM (inactive) | > 100 µM (inactive) | > 100 µM (inactive) | > 100 µM (inactive) | > 100 µM (inactive) | > 100 µM (inactive) | > 100 µM (inactive) | > 100 µM (inactive) | > 100 µM (inactive) | > 100 µM (inactive) | > 100 µM (inactive) | – | > 100 µM (inactive) | > 100 µM (inactive)
17 | CC(Oc1ccc(OCC2CCCCC2)cc1)C(=O)N(CCO)CCO (stereo unspecified) | > 100 µM (inactive) | > 100 µM (inactive) | 32.9 µM (inactive) | > 100 µM (inactive) | > 100 µM (inactive) | > 100 µM (inactive) | > 100 µM (inactive) | > 100 µM (inactive) | > 100 µM (inactive) | > 100 µM (inactive) | – | > 100 µM (inactive) | > 100 µM (inactive) | – | > 100 µM (inactive) | – | > 100 µM (inactive)
